From publication PMC7217483, “Early correction of synaptic long-term depression improves abnormal anxiety-like behavior in adult GluN2B-C456Y-mutant mice” (PLoS Biology, 2020)

Legend:
GluN2B [1] = biological target: T1, GluN2B (Mus musculus, UniProt P35439+Q01097, Q01097:C456Y, species not given); assay: potentiation of recombinant NMDAR currents in Xenopus oocytes; format: cell-based
T1 construct: gene Grin2b; recombinant diheteromeric GluN1/GluN2B-C456Y receptor; with GluN1

GluN2B [2] = biological target: T2, GluN2B (Mus musculus, UniProt P35439+Q01097); assay: as above; format: cell-based
T2 construct: gene Grin2b; recombinant diheteromeric GluN1/GluN2B receptor; with GluN1
T2 sequence (Q01097 27-1482, other chains not shown): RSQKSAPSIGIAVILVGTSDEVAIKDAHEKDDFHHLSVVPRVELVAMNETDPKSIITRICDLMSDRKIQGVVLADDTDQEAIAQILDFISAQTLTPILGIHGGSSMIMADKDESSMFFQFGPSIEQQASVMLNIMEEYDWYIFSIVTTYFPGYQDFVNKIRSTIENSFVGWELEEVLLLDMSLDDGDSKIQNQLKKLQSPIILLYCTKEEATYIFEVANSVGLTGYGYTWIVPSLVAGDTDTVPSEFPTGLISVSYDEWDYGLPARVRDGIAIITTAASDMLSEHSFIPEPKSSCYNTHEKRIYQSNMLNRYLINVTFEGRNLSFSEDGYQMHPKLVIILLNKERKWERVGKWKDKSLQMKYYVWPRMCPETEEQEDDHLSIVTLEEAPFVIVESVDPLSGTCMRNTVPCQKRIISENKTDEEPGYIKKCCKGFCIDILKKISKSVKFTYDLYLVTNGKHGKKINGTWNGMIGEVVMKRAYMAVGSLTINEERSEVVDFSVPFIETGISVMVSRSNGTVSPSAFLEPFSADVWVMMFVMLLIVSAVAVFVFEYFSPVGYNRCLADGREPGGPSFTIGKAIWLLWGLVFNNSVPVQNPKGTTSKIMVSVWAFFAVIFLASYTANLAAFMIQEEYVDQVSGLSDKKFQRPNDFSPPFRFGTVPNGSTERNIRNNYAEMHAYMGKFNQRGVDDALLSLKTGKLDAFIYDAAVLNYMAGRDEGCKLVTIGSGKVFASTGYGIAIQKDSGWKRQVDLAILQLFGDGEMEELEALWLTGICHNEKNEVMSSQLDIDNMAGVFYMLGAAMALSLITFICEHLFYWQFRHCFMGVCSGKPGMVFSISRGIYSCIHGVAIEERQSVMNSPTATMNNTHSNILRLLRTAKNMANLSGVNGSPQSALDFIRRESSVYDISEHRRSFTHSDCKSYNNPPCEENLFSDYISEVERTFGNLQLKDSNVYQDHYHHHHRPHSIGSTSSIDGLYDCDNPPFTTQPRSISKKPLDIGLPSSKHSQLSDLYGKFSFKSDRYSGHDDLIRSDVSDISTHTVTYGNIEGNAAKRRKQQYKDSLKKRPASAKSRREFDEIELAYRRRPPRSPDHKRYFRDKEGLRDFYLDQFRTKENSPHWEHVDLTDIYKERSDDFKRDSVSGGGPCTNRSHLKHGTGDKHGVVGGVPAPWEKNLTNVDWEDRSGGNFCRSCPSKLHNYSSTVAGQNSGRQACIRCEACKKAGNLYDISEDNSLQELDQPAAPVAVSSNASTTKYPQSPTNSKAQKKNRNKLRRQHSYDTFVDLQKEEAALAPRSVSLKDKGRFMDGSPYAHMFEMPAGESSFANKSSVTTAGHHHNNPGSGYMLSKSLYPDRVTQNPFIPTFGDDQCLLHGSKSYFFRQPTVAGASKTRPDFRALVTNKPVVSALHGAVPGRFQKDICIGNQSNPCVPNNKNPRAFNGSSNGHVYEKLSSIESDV

T1 sequence (Q01097 27-1482 C456Y, other chains not shown): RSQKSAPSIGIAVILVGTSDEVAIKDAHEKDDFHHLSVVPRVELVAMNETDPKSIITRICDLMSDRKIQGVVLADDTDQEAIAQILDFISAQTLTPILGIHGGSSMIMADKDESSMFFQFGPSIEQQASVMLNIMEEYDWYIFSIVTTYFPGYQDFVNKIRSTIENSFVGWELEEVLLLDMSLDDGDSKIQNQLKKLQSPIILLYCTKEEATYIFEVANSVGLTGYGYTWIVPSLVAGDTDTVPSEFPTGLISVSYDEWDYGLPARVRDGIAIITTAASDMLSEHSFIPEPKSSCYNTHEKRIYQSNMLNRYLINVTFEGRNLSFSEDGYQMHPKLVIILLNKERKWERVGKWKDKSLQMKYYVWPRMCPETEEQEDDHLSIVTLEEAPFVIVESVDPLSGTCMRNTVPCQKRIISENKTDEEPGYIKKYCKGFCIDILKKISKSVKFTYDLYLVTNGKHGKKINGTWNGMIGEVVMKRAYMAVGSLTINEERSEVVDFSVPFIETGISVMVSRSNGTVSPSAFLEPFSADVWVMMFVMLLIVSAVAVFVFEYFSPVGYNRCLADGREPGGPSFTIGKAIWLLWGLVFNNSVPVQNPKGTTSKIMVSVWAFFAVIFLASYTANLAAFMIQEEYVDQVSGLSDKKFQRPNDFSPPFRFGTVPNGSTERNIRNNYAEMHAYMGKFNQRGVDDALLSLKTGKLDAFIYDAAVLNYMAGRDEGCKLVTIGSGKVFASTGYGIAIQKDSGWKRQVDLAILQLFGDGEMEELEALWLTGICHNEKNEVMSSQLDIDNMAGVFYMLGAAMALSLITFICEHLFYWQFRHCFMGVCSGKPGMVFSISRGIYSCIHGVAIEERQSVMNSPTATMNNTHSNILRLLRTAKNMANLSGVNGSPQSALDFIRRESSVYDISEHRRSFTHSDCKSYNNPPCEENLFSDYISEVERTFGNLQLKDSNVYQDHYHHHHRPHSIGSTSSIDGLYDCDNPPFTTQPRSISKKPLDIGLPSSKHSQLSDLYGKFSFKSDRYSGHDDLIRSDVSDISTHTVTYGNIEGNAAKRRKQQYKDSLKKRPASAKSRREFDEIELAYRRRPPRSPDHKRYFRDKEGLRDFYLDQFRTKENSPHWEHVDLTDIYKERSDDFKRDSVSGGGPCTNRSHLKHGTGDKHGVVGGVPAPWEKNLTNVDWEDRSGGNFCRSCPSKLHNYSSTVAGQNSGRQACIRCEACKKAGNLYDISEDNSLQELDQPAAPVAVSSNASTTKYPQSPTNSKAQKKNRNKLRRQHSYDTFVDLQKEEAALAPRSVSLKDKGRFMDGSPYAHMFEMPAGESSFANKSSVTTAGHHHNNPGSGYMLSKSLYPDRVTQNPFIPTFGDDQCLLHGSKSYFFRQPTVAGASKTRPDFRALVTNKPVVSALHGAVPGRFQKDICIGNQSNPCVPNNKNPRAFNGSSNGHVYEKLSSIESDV

## NCCCNCCCCNCCCN [spermine]
GluN2B [1]
  potentiation of recombinant NMDAR currents in Xenopus oocytes: 2.83 spermine potentiation
GluN2B [2]
  potentiation of recombinant NMDAR currents in Xenopus oocytes: 9.45 spermine potentiation
